In this test the test system is cutaneous anaphylaxis. As to the kind of experiment: Passive cutaneous anaphylaxis (PCA) in rats. Type of test: in vivo, male rats. The note with it: Rattus norvegicus. The source says: Passive cutaneous anaphylaxis (PCA) in rats
Cutaneous anaphylaxis was induced in groups of 7 male rats weighing 180 to 220 grams by intradermal (ID) sensitization with antiserum followed, three days later, by systemic challenge with antigen. Evans blue dye injected with the antigen is used as a marker to assess the severity of the local response. Anti-allergic drugs inhibit this reaction and this method has been described by OVARY (1962) in "Passive Cutaneous Anaphylaxis in Allergology" 258-367 Ed. Brown; Pergamon Press.
Preparation of Antigen (or Sensitization)
(Alum-precipitated ovalbumen)
1. Wash 120 grams of Al(OH)3 gel in 140 ml of saline (use of a macerator facilitates mixing).
2. Centrifuge at 3,000 r.p.m. for about 10 minutes.
3. Resuspend the precipitate with 300 ml of albumen egg powder (1.3 mg/ml) in saline and allow to stand for 30 minutes.
4. Centrifuge at 3,000 r.p.m. for 10 minutes.
5. Weigh the wet precipitate and to each gram weight add 1 ml of saline. Store in frigerator.
(Quantity sufficient for 60 rats for a 3 day sensitization program).
Preparation of Antiserum (i.e. anti-ovalbumen)
1. 1 ml of the alum-precipitated ovalbumen was injected subcutaneously into 180-200 gram rats on days 0,2 and 4.
2. The rats were bled on day 14 either by cardiac puncture or via the dorsal abdominal aorta.
3. Equal quantities of serum from each animal were pooled and thoroughly mixed.
4. 2 ml of aliquots were stored at -20° C. in plastic tubes.
The antiserum for sensitization was diluted so that an ID injection of 0.1 ml into control animals gave an average score of a single spot of between 2.0-3.5 using a 5 point scoring system (0,1,2,3,4)
(A) SENSITIZATION: Rats are anaesthetized with Nembutal (40-60 mg/kg i.p.) and then sensitized by four ID injections (0.1 ml each) on their shaved backs. The animals were then left for a period of three days to develop sensitization.
(B) […]: The sensitized rats were anaesthetised and challenged orally or intravenously via the superficial penile vein with 1 ml of an antigen/Evans blue mixture (1 mg albumen egg powder in 0.5 ml saline plus 0.5 ml of 1% Evans blue). The injections were speeded up by using an automatic 1 ml self filling glass syringe. The "challenged" rats were killed after 30 minutes, (usually pithed) and their skin on the dorsal surface was removed. The degree and area of blueing, proportional to the anaphylactic reaction, was assessed on a five point scoring system.
1. Total scores for sites 1,2,3 and 4=X
2. Mean value of X for each group=X
3. X t=X for test group; X c=X for control group
4. % inhibition=(X c-X t)/X c×100/1

The term ED50 denotes the dose that gives a 50% effect, or the effect in half of the subjects. As to `CCCCn1c(=O)c2nc(C(=O)O)cn2c2ccccc21` [Example 10, 4,5-dihydro-5-butyl-4-oxoimidazo-[1,2-a]-quinoxaline-2-carboxylic acid], the ED50 runs as follows: (iv) 0.023 mg/kg; (po) 0.59 mg/kg. The matching figures for `CCCn1c(=O)c2nc(C(=O)O)cn2c2ccccc21` [Example 8, 4,5-dihydro-5-propyl-4-oxoimidazo-[1,2-a]-quinoxaline-2-carboxylic acid]: 0.01 mg/kg and 0.24 mg/kg. The matching figures for `CCn1c(=O)c2nc(C(=O)O)cn2c2ccccc21` [Example 6, 4,5-dihydro-5-ethyl-4-oxoimidazo-[1,2-a]-quinoxaline-2-carboxylic acid]: 0.01 mg/kg and 0.45 mg/kg. The corresponding values for `O=C(O)c1cn2c(n1)c(=O)[nH]c1ccccc12` [Example 2, 4,5-dihydro-4-oxoimidazo-[1,2-a]-quinoxaline-2-carboxylic acid] are 0.16 mg/kg and 2 mg/kg. For `Cn1c(=O)c2nc(C(=O)O)cn2c2ccccc21` [Example 4, 4,5-dihydro-5-methyl-4-oxoimidazo-[1,2-a]-quinoxaline-2-carboxylic acid], the ED50 (iv) came out at 0.031 mg/kg and the 50% effective dose (ED50) (po) is 1.28 mg/kg. In turn, `CCOC(=O)c1cn2c(n1)c(=O)n(CC)c1ccccc12` [Example 5, Ethyl 4,5-dihydro-5-ethyl-4-oxoimidazo-[1,2-a]-quinoxaline-2-carboxylate] had a median effective dose (ED50) (po) of 0.16 mg/kg.

The values are drawn from patent publication US4291033A, “Oxoimidazoquinoxalines” (Roussel Uclaf, priority 1979, dated 1981).
